Source: PMC10250618, “Synthesis, structure-activity relationships and biological evaluation of benzimidazole derived sulfonylurea analogues as a new class of antagonists of P2Y1 receptor” (Frontiers in Pharmacology, 2023)

Key:
r-P2Y6 = biological target: T1, r-P2Y6 (Rattus norvegicus, UniProt Q63371); assay: Calcium mobilization assay, r-P2Y6 transfected 1321N1 astrocytoma cells; assay type: cell-based; settings: 100 μM of UDP; for IC50: Ca2+ mobilization inhibition, transfected 1321N1 cells, read-out: IC50 ± SEM r-P2Y6; for inhibition at 100 µM: 1321-N1, final conc of 100 μM
T1 construct: host or cells: human 1321N1 astrocytoma cells, stably transfected
Procedure: (§1) Dr. Gary A. Weisman provided human-1321N1 astrocytoma cells that had been transfected by the tP2Y1R, hP2Y2R, hP2Y4R, and rP2Y6R and untransfected 1321N1 astrocytoma cells (University of Missouri Mo., Bond Life Science Center). The DMEM Dulbecco’s Modified Eagle -Medium (Gibco) was added in flasks to cultivate the cell line. 10% of the Fetal bovine serum was also added to the media together with 500 μg/mL of Geneticin (G418) and 1% of the Pen/Strep. The cells in T-75 flask were then cultured and incubated in a CO2 incubator which was maintained at (5%) and 37°C temperature until 90% of the cells were confluent. Throughout the experiment, cells were periodically checked for the confluency and strictly watched for the microbial contamination.
(§2) The FLUOstar Galaxy (BMG LABTECH GmbH, Ortenberg, Germany) microplate reader with two injectors was used to measure the Ca^2+ fluorescence of synthetic compounds. For this assay, 1321N1 transfected cells (t-P2Y1, h-P2Y2, h-P2Y4, and r-P2Y6) were cultured in T-75 flask. When cells reached the confluency of 80%–90%, they were washed with PBS and then Trypsin was added. After trypsinization for 3 min, 20,000 cells/well were allowed to seed in a black wall and 96 well clear bottom plate which was coated with Poly-D-Lysine and allowed to incubate for 24 h in 37°C, 5% CO2 incubator. After incubation, 200 μL culture media was changed with 100 μL HBSS containing Fura-2 AM which is calcium chelating dye and allowed the plate to incubate for 45 min in dark at temp of 37°C in incubator which is maintained with carbon dioxide (5% CO2). After incubation for 45 min, synthesized molecules were added to HBSS washed cells in each well of 96 well plate and re-incubated for 30 min at 37°C. In next step, injection of the endogenous ligand such as ADP through the injector was followed by excitation and emission measurements of Fura-2 AM at 380/520 nm and 340/520. Final volume of the assay per well 200 μL. IC50 values were computed for the compounds displaying more than 50% of activity using Prism 5.0 software (Graph Pad., Inc., San Diego. California, United States) by using analysis i.e., nonlinear regression ([Kassack et al., 2002]; [Ullmann et al., 2005]).

MTT assay, HEK-293 = assay type: cell-based; settings: human, HEK-293 cells; at 50 µM; triplicate; read-out: HEK-293 Cell Line (%cytotoxicity ±SEM)
[1] = MTT assay, non-transfected 1321N1 astrocytoma cells; assay type: cell-based, human; settings: human, non-transfected 1321N1 astrocytoma cells; at 50 µM; non-transfected astrocytoma 1321N1 cells; triplicate; read-out: H-1321N1 Cell Line (%cytotoxicity ±SEM)
Procedure: A 96-well plate was used to plate 20,000 human 1321N1 astrocytoma cells and allowed for incubation for 24 h at temp of 37°C in CO2 (5%) incubator. Next to this, the prepared culture media was changed to media which was free from FBS, the test compounds were added and the incubation process was repeated. After incubation of 24 h, the serum free media from the wells was discarded, and 100 μL of the reagent i.e., MTT reagent was pipetted. Plate was then additionally incubated at 37°C for 4 h. Utilizing a microplate reader, absorbance was determined at 570 nm and 630 nm for calculation of cell viability (FLUOstarOmega Microplate Reader-BMG LABTECH GmbH, Ortenberg, Germany) ([Sauer et al., 2009]).

t-P2Y1 = biological target: T2, t-P2Y1 (Meleagris gallopavo, UniProt P49652); assay: Calcium mobilization assay, t-P2Y1 transfected 1321N1 astrocytoma cells; assay type: cell-based; settings: 100 μM ADP; for IC50: Ca2+ mobilization inhibition, transfected 1321N1 cells, read-out: IC50 ± SEM t-P2Y1; for inhibition at 100 µM: 1321-N1, final conc of 100 μM
T2 construct: host or cells: human 1321N1 astrocytoma cells, stably transfected
Procedure: as §1, §2

h-P2Y4 = biological target: T3, h-P2Y4 (Homo sapiens, UniProt P51582); assay: Calcium mobilization assay, h-P2Y4 transfected 1321N1 astrocytoma cells; assay type: cell-based; settings: 500 μM UTP; for inhibition at 100 µM: 1321-N1, final conc of 100 μM, read-out: % Inhibition h-P2Y4
T3 construct: host or cells: human 1321N1 astrocytoma cells, stably transfected
Procedure: as §1, §2

h-P2Y2 = biological target: T4, h-P2Y2 (Homo sapiens, UniProt P41231); assay: Calcium mobilization assay, h-P2Y2 transfected 1321N1 astrocytoma cells; assay type: cell-based; settings: 500 μM ATP; for inhibition at 100 µM: 1321-N1, final conc of 100 μM; for IC50: Ca2+ mobilization inhibition, transfected 1321N1 cells, read-out: IC50 ± SEM h-P2Y2
T4 construct: host or cells: human 1321N1 astrocytoma cells, stably transfected
Procedure: as §1, §2

MTT assay, HeLa = assay type: cell-based; settings: human, HeLa cells; at 50 µM; triplicate; read-out: HeLa Cell Line (%cytotoxicity ±SEM)

T2 sequence (P49652 whole entry): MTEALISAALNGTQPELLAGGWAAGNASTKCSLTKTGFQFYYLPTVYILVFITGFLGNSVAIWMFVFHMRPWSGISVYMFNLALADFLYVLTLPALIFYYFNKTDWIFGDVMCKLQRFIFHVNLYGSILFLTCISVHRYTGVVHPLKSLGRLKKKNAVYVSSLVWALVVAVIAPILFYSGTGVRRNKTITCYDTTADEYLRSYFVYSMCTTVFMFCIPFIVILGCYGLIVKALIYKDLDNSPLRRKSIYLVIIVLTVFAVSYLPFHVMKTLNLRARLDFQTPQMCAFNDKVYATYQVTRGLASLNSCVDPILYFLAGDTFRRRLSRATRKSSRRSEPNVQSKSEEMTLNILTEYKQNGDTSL
T1 sequence (Q63371 whole entry): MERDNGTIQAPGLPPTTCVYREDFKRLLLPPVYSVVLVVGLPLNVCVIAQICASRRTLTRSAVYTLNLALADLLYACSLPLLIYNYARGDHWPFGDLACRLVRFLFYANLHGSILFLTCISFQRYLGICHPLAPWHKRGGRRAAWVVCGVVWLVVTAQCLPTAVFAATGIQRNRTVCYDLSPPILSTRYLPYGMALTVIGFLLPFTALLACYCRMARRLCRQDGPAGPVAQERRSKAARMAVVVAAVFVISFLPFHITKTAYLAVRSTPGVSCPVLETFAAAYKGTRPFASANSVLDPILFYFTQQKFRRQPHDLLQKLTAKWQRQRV
T3 sequence (P51582 whole entry): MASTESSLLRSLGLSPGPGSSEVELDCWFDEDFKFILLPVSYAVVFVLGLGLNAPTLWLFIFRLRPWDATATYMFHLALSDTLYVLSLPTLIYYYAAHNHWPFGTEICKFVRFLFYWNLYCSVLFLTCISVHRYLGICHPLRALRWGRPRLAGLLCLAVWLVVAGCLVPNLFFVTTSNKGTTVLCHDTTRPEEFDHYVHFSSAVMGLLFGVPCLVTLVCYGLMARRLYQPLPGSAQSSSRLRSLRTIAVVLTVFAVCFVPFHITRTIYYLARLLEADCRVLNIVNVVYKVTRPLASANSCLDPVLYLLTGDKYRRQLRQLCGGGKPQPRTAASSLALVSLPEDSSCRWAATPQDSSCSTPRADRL
T4 sequence (P41231 whole entry): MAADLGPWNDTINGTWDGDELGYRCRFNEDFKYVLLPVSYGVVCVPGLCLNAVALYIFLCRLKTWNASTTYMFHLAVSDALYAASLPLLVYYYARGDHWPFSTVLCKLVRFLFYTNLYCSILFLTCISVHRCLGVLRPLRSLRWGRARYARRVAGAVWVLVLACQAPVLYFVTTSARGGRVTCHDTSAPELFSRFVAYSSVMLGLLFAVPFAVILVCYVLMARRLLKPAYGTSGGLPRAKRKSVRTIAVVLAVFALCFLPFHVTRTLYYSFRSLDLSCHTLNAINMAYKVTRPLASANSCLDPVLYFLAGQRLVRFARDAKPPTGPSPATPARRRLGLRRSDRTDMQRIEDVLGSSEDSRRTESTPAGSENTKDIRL

| SMILES | IC50 (r-P2Y6) [µM] | IC50 (t-P2Y1) [µM] | inhibition at 100 µM (h-P2Y4) [%] | inhibition at 100 µM (h-P2Y2) [%] | melting point [°C] | IC50 (h-P2Y2) [µM] | IC50 (h-P2Y4; Ca2+ mobilization inhibition, transfected 1321N1 cells, read-out: IC50 ± SEM h-P2Y4) [µM] | cytotoxicity at 24 h, 50 µM (MTT assay, HEK-293) [%] | cytotoxicity at 24 h, 50 µM [1] [%] | cytotoxicity at 24 h, 50 µM (MTT assay, HeLa) [%] | inhibition at 100 µM (r-P2Y6) [%] | inhibition at 100 µM (t-P2Y1) [%] |
| --- | --- | --- | --- | --- | --- | --- | --- | --- | --- | --- | --- | --- |
| O=C(NS(=O)(=O)c1ccc([N+](=O)[O-])cc1)n1c(-c2ccccc2)nc2ccccc21 [1o, N-((4-nitrophenyl)sulfonyl)-2-phenyl-1H-benzo [d]imidazole-1-carboxamide] |  |  | 46 |  | 162 to 164 | 18.2 ± 0.77 |  | 27.9 ± 0.8 | 24.3 ± 0.8 | 24.3 ± 0.4 | 32 | 46 |
| COc1ccc(S(=O)(=O)NC(=O)n2c(OC)nc3ccccc32)cc1 [1u, 2-Methoxy-N-((4-methoxyphenyl)sulfonyl)-1H-benzo [d]imidazole-1-carboxamide] |  |  | 30 | 10 | 177 to 179 |  |  | 32.2 ± 0.9 | 25.5 ± 0.3 | 21.7 ± 0.6 | 18 | 31 |
| COc1nc2ccccc2n1C(=O)NS(=O)(=O)c1ccc(Cl)cc1 [1v, N-((4-chlorophenyl)sulfonyl)-2-methoxy-1H-benzo [d]imidazole-1-carboxamide] |  |  | 23 | 19 | 152 to 154 |  |  | 12.2 ± 0.7 | 19.7 ± 0.1 | 24.1 ± 0.3 | 19 | 42 |
| Cc1ccc(S(=O)(=O)NC(=O)n2c(N)nc3ccccc32)cc1 [1w, 2-Amino-N-tosyl-1H-benzo [d]imidazole-1-carboxamide] |  |  | 41 | 23 | 165 to 167 |  |  | 27.4 ± 0.3 | 23.2 ± 0.3 | 21.3 ± 0.5 | 39 | 49 |
| Nc1nc2ccccc2n1C(=O)NS(=O)(=O)c1ccc(-c2ccccc2)cc1 [1y, N-([1.1′-biphenyl]-4-ylsulfonyl)-2-amino-1H-benzo [d]imidazole-1-carboxamide] |  |  | 18 | 20 | 176 to 178 |  |  | 39.7 ± 0.2 | 43.1 ± 0.8 | 32.6 ± 0.3 | 23 | 12 |

Further lines, with some results ahead:

| IC50 (r-P2Y6) [µM] | IC50 (t-P2Y1) [µM] | inhibition at 100 µM (h-P2Y4) [%] | inhibition at 100 µM (h-P2Y2) [%] | melting point [°C] | IC50 (h-P2Y2) [µM] | IC50 (h-P2Y4; Ca2+ mobilization inhibition, transfected 1321N1 cells, read-out: IC50 ± SEM h-P2Y4) [µM] | SMILES | cytotoxicity at 24 h, 50 µM (MTT assay, HEK-293) [%] | cytotoxicity at 24 h, 50 µM [1] [%] | cytotoxicity at 24 h, 50 µM (MTT assay, HeLa) [%] | inhibition at 100 µM (r-P2Y6) [%] | inhibition at 100 µM (t-P2Y1) [%] |
| --- | --- | --- | --- | --- | --- | --- | --- | --- | --- | --- | --- | --- |
| 7.06 ± 1.47 | 5.69 ± 0.23 | 19 | 21 | 158 to 160 |  |  | O=C(NS(=O)(=O)c1ccc(Cl)cc1)n1c(-c2ccccc2)nc2ccccc21 [1n, N-((4-chlorophenyl)sulfonyl)-2-phenyl-1H-benzo [d]imidazole-1-carboxamide] | 38.7 ± 0.3 | 26.5 ± 0.4 | 22.4 ± 0.8 |  |  |
| 16.3 ± 0.83 | 5.59 ± 0.91 | 20 | 12 | 160 to 162 |  |  | COc1ccc(S(=O)(=O)NC(=O)n2c(Cl)nc3ccccc32)cc1 [1p, 2-Chloro-N-((4-methoxyphenyl)sulfonyl)-1H-benzo [d]imidazole-1-carboxamide] | 24.2 ± 0.7 | 21.2 ± 0.3 | 20.5 ± 0.2 |  |  |
|  | 14.6 ± 1.01 | 13 |  | 179 to 181 | 13.6 ± 1.97 |  | O=C(NS(=O)(=O)c1ccccc1)n1c(Cl)nc2ccccc21 [1q, 2-Chloro-N-(phenylsulfonyl)-1H-benzo [d]imidazole-1-carboxamide] | 30.1 ± 0.2 | 33.6 ± 0.7 | 29.7 ± 1.1 | 48 |  |
|  | 23.44 ± 0.22 | 22 | 47 | 172 to 174 |  |  | O=C(NS(=O)(=O)c1ccc(-c2ccccc2)cc1)n1c(Cl)nc2ccccc21 [1r, N-([1.1′-biphenyl]-4-ylsulfonyl)-2-chloro-1H-benzo [d]imidazole-1-carboxamide] | 33.2 ± 0.1 | 31.5 ± 0.4 | 26.5 ± 0.5 | 34 |  |
| 12.7 ± 1.02 | 3.11 ± 0.23 |  |  | 180 to 182 | 6.15 ± 1.08 | 2.67 ± 0.07 | O=C(NS(=O)(=O)c1ccc(Cl)cc1)n1c(Cl)nc2ccccc21 [1s, 2-Chloro-N-((4-chlorophenyl)sulfonyl)-1H-benzo [d]imidazole-1-carboxamide] | 12.1 ± 0.7 | 14.4 ± 0.2 | 19.5 ± 0.2 |  |  |
| 12.4 ± 1.1 | 6.04 ± 1.03 | 26 | 42 | 166 to 168 |  |  | O=C(NS(=O)(=O)c1ccc([N+](=O)[O-])cc1)n1c(Cl)nc2ccccc21 [1t, 2-Chloro-N-((4-nitrophenyl)sulfonyl)-1H-benzo [d]imidazole-1-carboxamide] | 21.4 ± 1.1 | 27.6 ± 0.4 | 20.3 ± 0.4 |  |  |
|  | 10 ± 0.12 | 29 | 38 | 188 to 190 |  |  | Cc1ccc(S(=O)(=O)NC(=O)n2c(N)nc3cc(Cl)ccc32)cc1 [1x, 2-Amino-5-chloro-N-tosyl-1H-benzo [d]imidazole-1-carboxamide] | 32.1 ± 0.7 | 12.6 ± 0.5 | 29.8 ± 1.5 | 41 |  |
